Values after ≈ are worked out from the molar mass of the structure shown.
Experiments:
Klebsiella pneumoniae [1] = assay: Antimicrobial activity against Klebsiella pneumoniae isolate H-1406 expressing VIM-1 and KPC-2 genes by microdilution method; type: functional
Klebsiella pneumoniae [2] = assay: Antimicrobial activity against Klebsiella pneumoniae isolate A-1760 expressing VIM-1 and KPC-2 genes by microdilution method; type: functional
Klebsiella pneumoniae [3] = assay: Antimicrobial activity against Klebsiella pneumoniae isolate T-1504 expressing VIM-1 and KPC-2 genes by microdilution method; type: functional
Klebsiella pneumoniae [4] = assay: Antimicrobial activity against Klebsiella pneumoniae isolate A-1797 expressing VIM-1 and KPC-2 genes by microdilution method; type: functional
Klebsiella pneumoniae [5] = assay: Antimicrobial activity against Klebsiella pneumoniae isolate T-1780 expressing VIM-1 and KPC-2 genes by microdilution method; type: functional
Klebsiella pneumoniae [6] = assay: Antimicrobial activity against Klebsiella pneumoniae isolate T-1504 expressing VIM-1 and KPC-2 genes by microdilution method in presence of beta-lactamase inhibitor Tazobactam; type: functional
Klebsiella pneumoniae [7] = assay: Antimicrobial activity against Klebsiella pneumoniae isolate A-1797 expressing VIM-1 and KPC-2 genes by microdilution method in presence of beta-lactamase inhibitor Tazobactam; type: functional
Klebsiella pneumoniae [8] = assay: Antimicrobial activity against Klebsiella pneumoniae isolate T-1780 expressing VIM-1 and KPC-2 genes by microdilution method in presence of beta-lactamase inhibitor Tazobactam; type: functional
Klebsiella pneumoniae [9] = assay: Antimicrobial activity against Klebsiella pneumoniae isolate H-1406 expressing VIM-1 and KPC-2 genes by microdilution method in presence of beta-lactamase inhibitor Tazobactam; type: functional
Klebsiella pneumoniae [10] = assay: Antimicrobial activity against Klebsiella pneumoniae isolate A-1760 expressing VIM-1 and KPC-2 genes by microdilution method in presence of beta-lactamase inhibitor Tazobactam; type: functional
Klebsiella pneumoniae [11] = assay: Antimicrobial activity against Klebsiella pneumoniae isolate H-1406 expressing VIM-1 and KPC-2 genes by microdilution method in presence of beta-lactamase inhibitor clavulanic acid; type: functional
Klebsiella pneumoniae [12] = assay: Antimicrobial activity against Klebsiella pneumoniae isolate A-1760 expressing VIM-1 and KPC-2 genes by microdilution method in presence of beta-lactamase inhibitor clavulanic acid; type: functional
Klebsiella pneumoniae [13] = assay: Antimicrobial activity against Klebsiella pneumoniae isolate A-1797 expressing VIM-1 and KPC-2 genes by microdilution method in presence of beta-lactamase inhibitor clavulanic acid; type: functional
Klebsiella pneumoniae [14] = assay: Antimicrobial activity against Klebsiella pneumoniae isolate T-1780 expressing VIM-1 and KPC-2 genes by microdilution method in presence of beta-lactamase inhibitor clavulanic acid; type: functional
Klebsiella pneumoniae [15] = assay: Antimicrobial activity against Klebsiella pneumoniae isolate T-1504 expressing VIM-1 and KPC-2 genes by microdilution method in presence of beta-lactamase inhibitor clavulanic acid; type: functional
[16] = target: Carbapenem-hydrolyzing beta-lactamase KPC (Klebsiella pneumoniae) (UniProt Q9F663); assay: Activity of KPC-2 in Klebsiella pneumoniae isolate T-1504
Sequence of Carbapenem-hydrolyzing beta-lactamase KPC (Klebsiella pneumoniae) (Q9F663 whole entry): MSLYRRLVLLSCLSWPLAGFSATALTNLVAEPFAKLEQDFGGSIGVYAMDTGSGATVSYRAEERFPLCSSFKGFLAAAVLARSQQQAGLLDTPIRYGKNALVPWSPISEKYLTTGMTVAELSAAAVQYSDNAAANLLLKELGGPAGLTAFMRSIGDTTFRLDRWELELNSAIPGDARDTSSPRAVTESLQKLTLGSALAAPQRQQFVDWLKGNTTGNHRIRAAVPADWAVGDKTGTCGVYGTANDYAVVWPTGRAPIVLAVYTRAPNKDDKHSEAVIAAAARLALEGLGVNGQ

[17] = target: Carbapenem-hydrolyzing beta-lactamase KPC (Klebsiella pneumoniae) (UniProt Q9F663); assay: Activity of KPC-2 in Klebsiella pneumoniae isolate T-1780 assessed as compound hydrolysis in presence of EDTA; set-up: scale not given: the % may be the effect or the level left
[18] = target: Metallo-beta-lactamase (Klebsiella pneumoniae) (UniProt Q5GN09); assay: Activity of VIM-1 in Klebsiella pneumoniae isolate T-1780 assessed as compound hydrolysis in presence of EDTA; set-up: scale not given: the % may be the effect or the level left
[19] = target: Carbapenem-hydrolyzing beta-lactamase KPC (Klebsiella pneumoniae) (UniProt Q9F663); assay: Activity of KPC-2 in Klebsiella pneumoniae isolate T-1504 assessed as compound hydrolysis in presence of EDTA; set-up: scale not given: the % may be the effect or the level left
[20] = target: Carbapenem-hydrolyzing beta-lactamase KPC (Klebsiella pneumoniae) (UniProt Q9F663); assay: Activity of KPC-2 in Klebsiella pneumoniae isolate H-1406 assessed as compound hydrolysis in presence of EDTA; set-up: scale not given: the % may be the effect or the level left
[21] = target: Metallo-beta-lactamase (Klebsiella pneumoniae) (UniProt Q5GN09); assay: Activity of VIM-1 in Klebsiella pneumoniae isolate A-1760
[22] = target: Metallo-beta-lactamase (Klebsiella pneumoniae) (UniProt Q5GN09); assay: Activity of VIM-1 in Klebsiella pneumoniae isolate A-1760 assessed as compound hydrolysis in presence of EDTA; set-up: scale not given: the % may be the effect or the level left
[23] = target: Metallo-beta-lactamase (Klebsiella pneumoniae) (UniProt Q5GN09); assay: Activity of VIM-1 in Klebsiella pneumoniae isolate A-1797
[24] = target: Metallo-beta-lactamase (Klebsiella pneumoniae) (UniProt Q5GN09); assay: Activity of VIM-1 in Klebsiella pneumoniae isolate H-1406 assessed as compound hydrolysis in presence of EDTA; set-up: scale not given: the % may be the effect or the level left
[25] = target: Carbapenem-hydrolyzing beta-lactamase KPC (Klebsiella pneumoniae) (UniProt Q9F663); assay: Activity of KPC-2 in Klebsiella pneumoniae isolate H-1406
[26] = target: Metallo-beta-lactamase (Klebsiella pneumoniae) (UniProt Q5GN09); assay: Activity of VIM-1 in Klebsiella pneumoniae isolate A-1797 assessed as compound hydrolysis in presence of EDTA; set-up: scale not given: the % may be the effect or the level left
[27] = target: Carbapenem-hydrolyzing beta-lactamase KPC (Klebsiella pneumoniae) (UniProt Q9F663); assay: Activity of KPC-2 in Klebsiella pneumoniae isolate T-1780
[28] = target: Metallo-beta-lactamase (Klebsiella pneumoniae) (UniProt Q5GN09); assay: Activity of VIM-1 in Klebsiella pneumoniae isolate H-1406
[29] = target: Metallo-beta-lactamase (Klebsiella pneumoniae) (UniProt Q5GN09); assay: Activity of VIM-1 in Klebsiella pneumoniae isolate T-1780

Structure (SMILES)	MIC (Klebsiella pneumoniae [1]) [µg/mL]	MIC (Klebsiella pneumoniae [2]) [µg/mL]	MIC (Klebsiella pneumoniae [3]) [µg/mL]	MIC (Klebsiella pneumoniae [4]) [µg/mL]	MIC (Klebsiella pneumoniae [5]) [µg/mL]	other results
CO/N=C(\C(=O)N[C@@H]1C(=O)N2C(C(=O)[O-])=C(C[N+]3(C)CCCC3)CS[C@H]12)c1csc(N)n1	128 (≈ 266 µM)	256 (≈ 533 µM)	16 (≈ 33.3 µM)	16 (≈ 33.3 µM)	> 256	–
CCN1CCN(C(=O)N[C@@H](C(=O)N[C@@H]2C(=O)N3[C@@H]2SC(C)(C)[C@@H]3C(=O)O)c2ccccc2)C(=O)C1=O [PIPERACILLIN]	–	–	128 (≈ 247 µM)	–	> 256	MIC (Klebsiella pneumoniae [6]): 64 µg/mL; MIC (Klebsiella pneumoniae [7]): > 256 µg/mL; MIC (Klebsiella pneumoniae [8]): > 256 µg/mL; MIC (Klebsiella pneumoniae [9]): > 256 µg/mL; MIC (Klebsiella pneumoniae [10]): > 256 µg/mL
C[C@@H](O)[C@H]1C(=O)N2C(C(=O)O)=C(S[C@@H]3CN[C@H](C(=O)Nc4cccc(C(=O)O)c4)C3)[C@H](C)[C@H]12	64 (≈ 135 µM)	64 (≈ 135 µM)	32 (≈ 67.3 µM)	8 (≈ 16.8 µM)	> 128	–
C[C@@H](O)[C@H]1C(=O)N2C(C(=O)O)=C(SCCNC=N)C[C@H]12 [IMIPENEM ANHYDROUS]	32 (≈ 107 µM)	32 (≈ 107 µM)	2 (≈ 6.68 µM)	2 (≈ 6.68 µM)	32 (≈ 107 µM)	–
CC1(C)S[C@@H]2[C@H](NC(=O)[C@H](C(=O)O)c3ccsc3)C(=O)N2[C@H]1C(=O)O [TICARCILLIN]	> 256	–	256 (≈ 666 µM)	–	> 256	MIC (Klebsiella pneumoniae [11]): 256 µg/mL; MIC (Klebsiella pneumoniae [12]): > 256 µg/mL; MIC (Klebsiella pneumoniae [13]): > 256 µg/mL; MIC (Klebsiella pneumoniae [14]): > 256 µg/mL; MIC (Klebsiella pneumoniae [15]): 8 µg/mL
C[C@@H](O)[C@H]1C(=O)N2C(C(=O)O)=C(S[C@@H]3CN[C@H](C(=O)N(C)C)C3)[C@H](C)[C@H]12 [MEROPENEM]	8 (≈ 20.9 µM)	64 (≈ 167 µM)	–	2 (≈ 5.22 µM)	64 (≈ 167 µM)	Activity [16]: 31 U; Activity [17]: 64%; Activity [18]: 64%; Activity [19]: < 2%; Activity [20]: 57%; Activity [21]: 80 U; Activity [22]: 100%; Activity [23]: 42 U; Activity [24]: 57%; Activity [25]: 55 U; Activity [26]: 80%; Activity [27]: 76 U; Activity [28]: 55 U; Activity [29]: 76 U
CO/N=C(\C(=O)N[C@@H]1C(=O)N2C(C(=O)O)=C(COC(C)=O)CS[C@H]12)c1csc(N)n1 [CEFOTAXIME]	256 (≈ 562 µM)	> 256	8 (≈ 17.6 µM)	> 256	> 256	–
C[C@H]1[C@H](NC(=O)/C(=N\OC(C)(C)C(=O)O)c2csc(N)n2)C(=O)N1S(=O)(=O)O [AZTREONAM]	64 (≈ 147 µM)	0.12 (≈ 0.276 µM)	32 (≈ 73.5 µM)	64 (≈ 147 µM)	64 (≈ 147 µM)	–
CC(C)(O/N=C(\C(=O)N[C@@H]1C(=O)N2C(C(=O)[O-])=C(C[n+]3ccccc3)CS[C@H]12)c1csc(N)n1)C(=O)O [CEFTAZIDIME]	> 256	> 256	16 (≈ 29.3 µM)	> 256	> 256	–

Reference: ChEMBL document CHEMBL1649206, “Emerging Klebsiella pneumoniae isolates coproducing KPC-2 and VIM-1 carbapenemases” (2009)
